Source: PubChem BioAssay AID1745844 (Carcinogenic Potency Database (CPDB), 2022)
Active and inactive are the calls of the source. No rule for the calls is given here.

System: rodent lifetime carcinogenesis bioassay, tumor incidence TD50
Assay: chronic cancer bioassays in animals – CPDB, compiled studies (AID 1745844)

COC1COC(OC2COC(OC3COC(OC4COC(OC)C(OS(=O)(=O)O)C4OS(=O)(=O)O)C(OC4OC(C(=O)O)C(OC)C(OS(=O)(=O)O)C4OS(=O)(=O)O)C3OS(=O)(=O)O)C(OS(=O)(=O)O)C2OS(=O)(=O)O)C(OS(=O)(=O)O)C1OS(=O)(=O)O (centres undefined)
TD50 (mouse, strain B6C3F1, females, by gavage, site: all sites, lesion: hemangioma + hemangiosarcoma, dosed 104 weeks, study length 104 weeks): 1700 mg/kg/day | TD50 (mouse, strain B6C3F1, females, by gavage, site: all sites, lesion: hemangioma, dosed 104 weeks, study length 104 weeks): 4340 mg/kg/day | TD50 (mouse, strain B6C3F1, females, by gavage, site: all sites, lesion: malignant lymphoma, dosed 104 weeks, study length 104 weeks): 927 mg/kg/day | TD50 (mouse, strain B6C3F1, females, by gavage, site: any site (literature study), lesion: several types, types named in the paper, dosed 104 weeks, study length 104 weeks): 660 mg/kg/day | TD50 (mouse, strain B6C3F1, females, by gavage, site: liver, lesion: hemangiosarcoma + hepatocellular adenoma + hepatocellular carcinoma, dosed 104 weeks, study length 104 weeks): 663 mg/kg/day | TD50 (mouse, strain B6C3F1, females, by gavage, site: liver, lesion: hemangiosarcoma, dosed 104 weeks, study length 104 weeks): 3160 mg/kg/day | TD50 (mouse, strain B6C3F1, females, by gavage, site: liver, lesion: hepatocellular adenoma + hepatoblastoma + hepatocellular carcinoma, dosed 104 weeks, study length 104 weeks): 867 mg/kg/day | TD50 (mouse, strain B6C3F1, females, by gavage, site: liver, lesion: hepatocellular adenoma + hepatocellular carcinoma, dosed 104 weeks, study length 104 weeks): 867 mg/kg/day | TD50 (mouse, strain B6C3F1, females, by gavage, site: liver, lesion: hepatocellular adenoma, dosed 104 weeks, study length 104 weeks): 991 mg/kg/day | TD50 (mouse, strain B6C3F1, males, by gavage, site: all sites, lesion: hemangiosarcoma, dosed 104 weeks, study length 104 weeks): 1340 mg/kg/day | TD50 (mouse, strain B6C3F1, males, by gavage, site: any site (literature study), lesion: several types, types named in the paper, dosed 104 weeks, study length 104 weeks): 297 mg/kg/day | TD50 (mouse, strain B6C3F1, males, by gavage, site: liver, lesion: hemangiosarcoma, dosed 104 weeks, study length 104 weeks): 1090 mg/kg/day | TD50 (mouse, strain B6C3F1, males, by gavage, site: liver, lesion: hepatocellular adenoma + hepatoblastoma + hepatocellular carcinoma, dosed 104 weeks, study length 104 weeks): 538 mg/kg/day | TD50 (mouse, strain B6C3F1, males, by gavage, site: liver, lesion: hepatocellular adenoma + hepatocellular carcinoma, dosed 104 weeks, study length 104 weeks): 499 mg/kg/day | TD50 (mouse, strain B6C3F1, males, by gavage, site: lung, lesion: alveolar/bronchiolar adenoma + alveolar/bronchiolar carcinoma, dosed 104 weeks, study length 104 weeks): 8000 mg/kg/day | TD50 (rat, strain Fischer 344, females, by gavage, site: any site (literature study), lesion: several types, types named in the paper, dosed 104 weeks, study length 104 weeks): 1980 mg/kg/day (inactive) | carcinogen call (rat, strain Fischer 344, males, by gavage, site: any site (literature study), lesion: several types, types named in the paper, dosed 104 weeks, study length 104 weeks): negative (inactive)

CCCCC/C=C\C/C=C\CCCCCCCC(=O)OC
carcinogen call (rat, strain Wistar, males, by gavage, site: gastrointestinal tract, lesion: several types, types named in the paper, dosed 30 weeks, study length 87 weeks): negative (inactive) | carcinogen call (rat, strain Wistar, males, by gavage, site: liver, lesion: one or several types, types not named, dosed 30 weeks, study length 87 weeks): negative (inactive)

CN(C)CCN(Cc1ccco1)c1ccccn1
carcinogen call (rat, strain Fischer 344, females, in drinking water, site: liver, lesion: several types, types named in the paper, dosed 94 weeks, study length 130 weeks): negative (inactive) | TD50 (rat, strain Fischer 344, females, in drinking water, site: thyroid follicle, lesion: several types, types named in the paper, dosed 94 weeks, study length 130 weeks): 559 mg/kg/day (inactive) | carcinogen call (rat, strain Fischer 344, males, in drinking water, site: liver, lesion: several types, types named in the paper, dosed 94 weeks, study length 115 weeks): negative (inactive)

ClC1=C(Cl)C2(Cl)C3C(Cl)OC(Cl)C3C1(Cl)C2(Cl)Cl (centres undefined)
carcinogen call (mouse, strain B6AKF1, females, oral dosing, site: any site (literature study), lesion: several types, types named in the paper, dosed 76 weeks, study length 76 weeks): negative (inactive) | carcinogen call (mouse, strain B6AKF1, females, oral dosing, site: liver, lesion: hepatoma, dosed 76 weeks, study length 76 weeks): negative (inactive) | carcinogen call (mouse, strain B6AKF1, females, oral dosing, site: lung, lesion: adenoma, dosed 76 weeks, study length 76 weeks): negative (inactive) | TD50 (mouse, strain B6AKF1, males, oral dosing, site: any site (literature study), lesion: several types, types named in the paper, dosed 76 weeks, study length 76 weeks): 0.136 mg/kg/day (inactive) | carcinogen call (mouse, strain B6AKF1, males, oral dosing, site: liver, lesion: hepatoma, dosed 76 weeks, study length 76 weeks): negative (inactive) | TD50 (mouse, strain B6AKF1, males, oral dosing, site: lung, lesion: adenoma, dosed 76 weeks, study length 76 weeks): 0.146 mg/kg/day (inactive) | TD50 (mouse, strain B6C3F1, females, oral dosing, site: any site (literature study), lesion: several types, types named in the paper, dosed 76 weeks, study length 76 weeks): 0.277 mg/kg/day (inactive) | carcinogen call (mouse, strain B6C3F1, females, oral dosing, site: liver, lesion: hepatoma, dosed 76 weeks, study length 76 weeks): negative (inactive) | TD50 (mouse, strain B6C3F1, females, oral dosing, site: lung, lesion: adenoma, dosed 76 weeks, study length 76 weeks): 0.571 mg/kg/day (inactive) | TD50 (mouse, strain B6C3F1, males, oral dosing, site: any site (literature study), lesion: several types, types named in the paper, dosed 76 weeks, study length 76 weeks): 0.242 mg/kg/day (inactive) | TD50 (mouse, strain B6C3F1, males, oral dosing, site: liver, lesion: hepatoma, dosed 76 weeks, study length 76 weeks): 0.5 mg/kg/day (inactive) | TD50 (mouse, strain B6C3F1, males, oral dosing, site: lung, lesion: adenoma, dosed 76 weeks, study length 76 weeks): 0.5 mg/kg/day (inactive)
